The results in this text go back to BindingDB's records for doi:10.1016/j.bmcl.2005.08.072 (Merck Research Laboratories, 2005).

As usually defined, the IC50 is the midpoint of a concentration-inhibition curve.

The target of this assay is T1, Dimer of Gag-Pol polyprotein [489-587,Q496K] (Human immunodeficiency virus 1, UniProt P12497, Q496K).
T1 construct: 489-587
As to the kind of experiment: Protease Inhibition Assay. Particulars: pH 5.5; 30 °C. On the procedure: Assay of HIV protease inhibition was performed by peptide cleavage using the substrate Val-Ser-Gln-Asn-beta-naphthylalanine*Pro-Ile-Val. Products of the cleavage reaction were quantified by HPLC detection, and data were fit to nonlinear least squares equations for determination of steady-state Michaelis-Menten kinetics.

As for `CC(C)(c1ncc(-c2ccc(Cl)cc2)o1)N1CCN(C[C@@H](O)C[C@@H](Cc2cc3ccncc3s2)C(=O)N[C@H]2c3ccccc3OC[C@H]2O)[C@H](C(=O)NCC(F)(F)F)C1` [(2S)-4-{2-[5-(4-chlorophenyl)-1,3-oxazol-2-yl]propan-2-yl}-1-[(2S,4S)-2-hydroxy-4-{[(3S,4S)-3-hydroxy-3,4-dihydro-2H-1-benzopyran-4-yl]carbamoyl}-4-{thieno[2,3-c]pyridin-2-ylmethyl}butyl]-N-(2,2,2-trifluoroethyl)piperazine-2-carboxamide], the IC50 was < 0.02 nM.

For the molecule `CC(C)(c1ncc(-c2ccc(Cl)cc2)o1)N1CCN(C[C@@H](O)C[C@@H](Cc2cc3c(Cl)cncc3s2)C(=O)N[C@H]2c3ccccc3OC[C@H]2O)[C@H](C(=O)NCC(F)(F)F)C1` [(2S)-4-{2-[5-(4-chlorophenyl)-1,3-oxazol-2-yl]propan-2-yl}-1-[(2S,4S)-4-({4-chlorothieno[2,3-c]pyridin-2-yl}methyl)-2-hydroxy-4-{[(3S,4S)-3-hydroxy-3,4-dihydro-2H-1-benzopyran-4-yl]carbamoyl}butyl]-N-(2,2,2-trifluoroethyl)piperazine-2-carboxamide], the half-maximal inhibitory concentration (IC50) was < 0.02 nM.
